Test system: CDG-Ia fibroblasts
Assay: LLO oligosaccharide distribution in fibroblasts by normal phase chromatography
Type: cell-based, human
Conditions: low glucose DMEM, 300 μM treatment, peak area normalized to protein content
Protocol: Cellular internalization into the cytosol and subsequent integration of the M1P-liposomes (as prepared in Example 1), was assessed in vitro using primary human dermal fibroblasts derived from patients affected with CDG-Ia disorder (CDG-Ia fibroblasts) and wild-type human dermal fibroblasts. For evaluation of the ability of the M1P-liposomes to correct protein glycosylation defects, M1P-liposomes were delivered to CDG Type I primary fibroblasts derived from patients affected with CDG-Ia disorder. The ability to drive glycosylation forward was evaluated by comparing glycoprotein N-glycan structure before and after treatment. Such comparison required N-glycan analysis using normal phase chromatography. By utilizing endocytotic pathways, M1P-liposomes can enter the cell interior and release their cargo into the cytosol. Due to the ability to deliver a non-modified mannose-1-phosphate into the cytosol, analysis was performed on the assembly of LLO oligosaccharides in wild-type fibroblasts and fibroblasts derived from a CDG-Ia patient ([…] structures were isolated from the wild-type fibroblasts (having 100% PMM activity) as well as from the CDG-Ia fibroblasts (having 10% PMM activity) and the amounts of the LLO structures were compared using chromatographic methods. CDG-Ia dermal fibroblasts make a series of truncated lipid-linked oligosaccharide (LLO) species ranging in size from M2Gn2 to M5Gn2 with M2Gn2 and M3Gn2 being predominant. The M1P liposomes from Example 1 were tested in order to evaluate their capacity to normalize the distribution of various LLO oligosaccharides. CDG-Ia fibroblasts cultured in low glucose DMEM media were incubated with 300 μM of bare M1P (M1P) and 300 μM of the M1P-liposomes (M1PL). After treatment, cells were harvested and LLO oligosaccharides were recovered, hydrolyzed, modified with fluorophore, and analyzed by normal phase chromatography as described by Gao et al. (Methods in Enzymology, 2006, 415, 3-20) and Bones et al. (Anal. Chem, 2011, 83 (13), 5344-52). The peak area of each LLO was normalized to protein content prior to calculation of percentage abundance.

Structure (SMILES): O=P(O)(O)OC1O[C@H](CO)[C@@H](O)[C@H](O)[C@@H]1O (stereo partly shown) [M1P, mannose-1-phosphate]
- M2Gn2 LLO oligosaccharide distribution (percentage abundance): 40%
- M3Gn2 LLO oligosaccharide distribution (percentage abundance): 24%
- M4Gn2 LLO oligosaccharide distribution (percentage abundance): 27%
- M5Gn2 LLO oligosaccharide distribution (percentage abundance): 8.9%

— patent US11045419B2, “Pharmaceutical preparation of carbohydrates for therapeutic use” (Glycomine, Inc., priority 2013, dated 2021)
